Data taken from ChEMBL document CHEMBL3045550, “Design, synthesis and biological activities of new strobilurin derivatives containing substituted pyrazoles” (2010).

Experiments:
Type in all cases: functional
[1] = tested on: Pseudoperonospora cubensis; assay: Antifungal activity against Pseudoperonospora cubensis infected cucumber leaves assessed as disease control at 3.12 mg/l after 5 days relative to control
Tetranychus cinnabarinus [2] = assay: Acaricidal activity against Tetranychus cinnabarinus (carmine spider mite) in kidney bean plants assessed as mortality at 38 mg/l after 48 hr relative to control
[3] = tested on: Blumeria graminis f. sp. tritici; assay: Antifungal activity against Blumeria graminis f. sp. tritici infected seven-day-old wheat seedlings assessed as disease control at 12.5 mg/l after 7 days relative to control
[4] = tested on: Blumeria graminis f. sp. tritici; assay: Antifungal activity against Blumeria graminis f. sp. tritici infected seven-day-old wheat seedlings assessed as disease control at 400 mg/l after 7 days relative to control
[5] = tested on: Pseudoperonospora cubensis; assay: Antifungal activity against Pseudoperonospora cubensis infected cucumber leaves assessed as disease control at 25 mg/l after 5 days relative to control
Pyricularia oryzae = assay: Antifungal activity against Magnaporthe oryzae infected 12 day old rice plant assessed as disease control at 400 mg/l after 6 days relative to control
[6] = tested on: Pseudoperonospora cubensis; assay: Antifungal activity against Pseudoperonospora cubensis infected cucumber leaves assessed as disease control at 6.25 mg/l after 5 days relative to control
Tetranychus cinnabarinus [7] = assay: Acaricidal activity against Tetranychus cinnabarinus (carmine spider mite) in kidney bean plants assessed as mortality at 150 mg/l after 48 hr relative to control
Tetranychus cinnabarinus [8] = assay: Acaricidal activity against Tetranychus cinnabarinus (carmine spider mite) in kidney bean plants assessed as mortality at 600 mg/l after 48 hr relative to control
Botrytis cinerea = assay: Antifungal activity against Botryotinia fuckeliana infected cucumber leaves assessed as disease control at 400 mg/l after 4 days relative to control
[9] = tested on: Blumeria graminis f. sp. tritici; assay: Antifungal activity against Blumeria graminis f. sp. tritici infected seven-day-old wheat seedlings assessed as disease control at 1.56 mg/l after 7 days relative to control
[10] = tested on: Pseudoperonospora cubensis; assay: Antifungal activity against Pseudoperonospora cubensis infected cucumber leaves assessed as disease control at 400 mg/l after 5 days relative to control

| SMILES | Activity [1] [%] | Activity (Tetranychus cinnabarinus [2]) [%] | Activity [3] [%] | Activity [4] [%] | Activity [5] [%] | Activity (Pyricularia oryzae) [%] | Activity [6] [%] | Activity (Tetranychus cinnabarinus [7]) [%] | Activity (Tetranychus cinnabarinus [8]) [%] | Activity (Botrytis cinerea) [%] | Activity [9] [%] | Activity [10] [%] |
| --- | --- | --- | --- | --- | --- | --- | --- | --- | --- | --- | --- | --- |
| CO/C=C(/C(=O)OC)c1ccccc1COc1c(C)c(-c2cc(C)ccc2C)nn1C [METHYL 2-(2-((3-(2,5-DIMETHYLPHENYL)-1,4-DIMETHYL-1H-PYRAZOL-5-YLOXY)METHYL)PHENYL)-3-METHOXYACRYLATE] | 0 | 0 | 50 | 100 | 80 | 100 | 0 | 20 | 100 | 50 | 0 | 100 |
| CO/C=C(/C(=O)OC)c1ccccc1COc1c(C)c(-c2ccc(C)c(C)c2)nn1C [METHYL 2-(2-((3-(3,4-DIMETHYLPHENYL)-1,4-DIMETHYL-1H-PYRAZOL-5-YLOXY)METHYL)PHENYL)-3-METHOXYACRYLATE] | 30 | 0 | 100 | 100 | 100 | 100 | 85 | 80 | 100 | 50 | 70 | 100 |
| CO/C=C(/C(=O)OC)c1ccccc1COc1cc(-c2ccc(C)c(C)c2)nn1C [METHYL 2-(2-((3-(3,4-DIMETHYLPHENYL)-1-METHYL-1H-PYRAZOL-5-YLOXY)METHYL)PHENYL)-3-METHOXYACRYLATE] | 35 | 0 | 100 | 100 | 100 | 100 | 40 | 0 | 100 | 50 | 80 | 100 |
| CO/C=C(/C(=O)OC)c1ccccc1COc1cc(-c2ccc(Br)cc2)nn1C [METHYL 2-(2-((3-(4-BROMOPHENYL)-1-METHYL-1H-PYRAZOL-5-YLOXY)METHYL)PHENYL)-3-METHOXYACRYLATE] | 60 | 57 | 100 | 100 | 100 | 70 | 85 | 71 | 100 | 0 | 10 | 100 |
| CCOc1ccc(-c2nn(C)c(OCc3ccccc3/C(=C\OC)C(=O)OC)c2C)cc1 [METHYL 2-(2-((3-(4-ETHOXYPHENYL)-1,4-DIMETHYL-1H-PYRAZOL-5-YLOXY)METHYL)PHENYL)-3-METHOXYACRYLATE] | 0 | 20 | 100 | 100 | 50 | 100 | 0 | 35 | 100 | 100 | 65 | 100 |
| CCc1ccc(-c2nn(C)c(OCc3ccccc3/C(=C\OC)C(=O)OC)c2C)cc1 [METHYL 2-(2-((3-(4-ETHYLPHENYL)-1,4-DIMETHYL-1H-PYRAZOL-5-YLOXY)METHYL)PHENYL)-3-METHOXYACRYLATE] | 20 | 30 | 100 | 100 | 100 | 0 | 60 | 100 | 100 | 0 | 0 | 100 |
| CO/C=C(/C(=O)OC)c1ccccc1COc1c(C)c(-c2ccc(C(C)(C)C)cc2)nn1C [METHYL 2-(2-((3-(4-TERT-BUTYLPHENYL)-1,4-DIMETHYL-1H-PYRAZOL-5-YLOXY)METHYL)PHENYL)-3-METHOXYACRYLATE] | 0 | 0 | 10 | 90 | 20 | 50 | 0 | 0 | 100 | 50 | 0 | 95 |
